Where “and” joins values, the source holds several entries; their conditions need not be identical. Identical values can stand only once.
How the values were obtained:
[1] = CellTiter-Blue cell viability assay, HEK-293 (24 h); assay type: cell-based, human; details: human, HEK-293 cells, CellTiter-Blue, 24 h incubation, 10 μM test compound, standardised to DMSO control
Description: (§1) Human Embryonic Kidney cells (HEK‐293) and human breast cancer cells (MCF‐7, MDA‐MB‐231 and HCC1954) were cultured in complete growth media: […] 1X (Gibco); 10% v/v Fetal Bovine Serum (FBS, Sigma Dorset UK) and L‐glutamine (2 mM, Invitrogen). SW‐480‐WT cells were maintained in selective media made up of Dulbecco's Modified Eagle Medium (Gibco), enriched with […] of Geneticin Selective Antibiotic (G418 Sulfate; Gibco, Thermo Fisher). Cells were incubated at a 5% CO2 atmosphere at 37°C.
(§2) Cells were cultured in 96‐well plates in 90 μL at a seeding density of 1 × 10^6 cells per well. Compound samples were prepared at different concentrations (1 mM, 100 μM, 10 μM, 1 μM, 100 nM, 10 nM) and 10 μL of each concentration was seeded in each well. Two different negative controls were used: DMSO 0.01% and 0.001%. Paclitaxel (30% w/v) was used as a positive control. Cells were treated for 24 h after which 20 μL of CellTitre‐Blue reagent (Promega, Southampton, UK) was added and incubated for 2 h at 37°C in 5% CO2. Fluorescence was measured at 560/590 nm on a Fluorostar Optima plate reader (BMG Labtech, Bucks, UK). Assay end points were normalised to 0% (DMSO only) and fitted to a semilog plot using at least n = 3 technical replicates (n = 6 for DMSO control and paclitaxel control) and N = 3 independent replicates. The curve fit was performed using the GraphPad Prism software and the standard Hill equation.
(§3) In view of previous reports on Hsp90 inhibitors and their effects on cancer cell viability (Eachkoti et al. [2014]) and clonogenicity (Kinzel et al. [2016]), new compounds were tested for inhibition of cell viability within both non‐tumourigenic (HEK‐293) and breast cancer cell lines (MDA‐MB‐231) at a fixed concentration of 10 μM. The well‐established CellTiter‐Blue endpoint assay was used to assess cell viability. New compounds were also assessed in a colony forming assay (MCF‐7 breast cancer cell line), used as an efficacy screening to provide an indication of the inhibition of clonogenicity for these small molecules (Table 1).

HEK-293 cells = assay: as above; assay type: cell-based, human; details: Homo sapiens, HEK293; 24 h incubation time
Description: as §1, §2, §3

MDA-MB-231 cells = assay: CellTiter-Blue cell viability assay, MDA-MB-231 (24 h); assay type: cell-based, human; details: for GI50: 24 h incubation time; for viability at 10 µM / % Viability (MDA-MB-231, 10 μM): CellTiter-Blue, 24 h incubation, 10 μM test compound, standardised to DMSO control
Description: as §1, §2, §3

MCF-7 cells = assay: Colony forming assay, MCF-7; assay type: cell-based, human; details: for IC50: Homo sapiens, MCF7, 168 h, 7 days; for % Clonogenicity (MCF-7, 10 μM): percentage of survival colonies, 7-day incubation, standardised to DMSO control
Description: as §1
Cells were seeded in a 12‐well plate at 400 cells per well. One hour after the seeding of the cells, compounds (1 mM, 100 μM, 10 μM, 1 μM, 100 nM, 10 nM) or vehicle were added into the wells in triplicate (DMSO vehicle 0.1% and 1%). After 7 days, colonies were stained with 350 μL of crystal violet solution, incubated for 30 min at room temperature, then wells were washed in water and dried. At least the best 3 independent experiments out of 5 independent repeats were used to perform the statistical analysis of the results. Colonies were counted by GelCount Colony Counter (Oxford Optronix Ltd.) using the GelCount 1.1.8.0 software. Assay end points were normalised to 0% (DMSO only) and fitted to a semi‐log plot using at least n = 3 technical replicates (n = 6 for DMSO control and N = 3 independent replicates). The curve fit was performed using GraphPad Prism.
as §3

[2] = molecular target: T1, Recombinant human Hsp90 alpha protein (Homo sapiens, UniProt P07900); assay: Transcreener ADP FP Hsp90 ATPase assay; assay type: biochemical; details: Recombinant human HSP90, 100 μM ATP; read-out: ATPase assay on rh-Hsp90 IC50
T1 construct: human full‐length protein, expressed in Escherichia coli; His tag (C); purchased Abcam ab80369; host or cells: Escherichia coli
Description: Transcreener ADP (cat. no. 3004‐1K) and ADP2 (cat. no. 3010‐1K) FP assay kits were obtained from Bellbrook Laboratories. Recombinant human Hsp90 alpha protein (active), human full‐length protein, expressed in Escherichia coli with > 90% purity and C‐terminus His tag, was purchased from Abcam (ab80369). All FP assays were carried out in black, 384‐well, low‐volume, polystyrene nonbinding microplates from Corning Life Sciences. All basic buffer components were obtained from Sigma‐Aldrich Chemical Co. 17‐AAG (Figure 1) was obtained from Abcam. Using the Transcreener ADP FP kit, the conditions for the recombinant human Hsp90 ATPase reaction were 50 mM HEPES (pH 7.4), 20 mM KCl, 2 mM EGTA, 4 mM MgCl2, and 0.01% Brij‐35 in a 10‐μL total assay volume. The final assay concentration of ATP was 100 μM for Hsp90. Due to the relatively low level of ATPase activity compared with other enzymes, the plate was incubated at 37°C and run over 1, 2 and 3 h time points. The reaction was stopped, and the ADP was detected by adding 10 μL of 50 mM HEPES (pH 7.4), 400 mM NaCl, 20 mM EDTA, 0.01% Brij35, 75 μg/mL anti‐ADP monoclonal antibody, and 4 nM ADP far red tracer. The plate was sealed, centrifuged at 600 g for 1 min, and left at room temperature for 1 h. FP readings for the Hsp90 ATPase Transcreener assays were performed on a Clariostar plate reader ([…]). A blank mP signal composed of protein, antibody, labelled ADP, but no ATP substrate gave similar mP values to those seen in the no‐protein controls. The upper limit of the assay window was defined by a no‐protein control, and the mP in the presence of heat shock protein was subtracted from this control to generate a change in polarisation (ΔmP), which was plotted on the activity graphs. Therefore, the data take into account the spontaneous hydrolysis of ATP. Each value is the mean of triplicate determinations with standard deviations (SD) shown. IC50 values were calculated using GraphPad Prism software with the nonlinear regression curve fitted to the log (inhibitor concentration) against the raw mP values on the linear portion of the standard curve.

SMILES | GI50 (MDA-MB-231 cells; Homo sapiens, MDA-MB-231, 24 h) [µM] | IC50 (MCF-7 cells) [µM] | IC50 [2] [µM] | GI50 (MDA-MB-231 cells) [µM] | viability at 24 h, 10 µM [1] [%] | GI50 (HEK-293 cells) [µM] | viability at 10 µM (MDA-MB-231 cells; Homo sapiens, MDA-MB-231, 24 h) [%] | % Clonogenicity (MCF-7, 10 μM) (MCF-7 cells) | % Viability (MDA-MB-231, 10 μM) (MDA-MB-231 cells) [%]
CC1=C(C(=O)OCc2ccccc2)C(c2ccc(OC(F)(F)F)cc2F)NC(=O)N1 (stereo not shown) [Compound 5f, Benzyl 4‐(2‐Fluoro‐4‐(Trifluoromethoxy)phenyl)‐6‐Methyl‐2‐Oxo‐1,2,3,4‐Tetrahydropyrimidine‐5‐Carboxylate] | 98.9 | 2.29 | 13.7 | – | 95.1 ± 3.82 | 16.4 | 85.7 ± 2.65 | 72.41 ± 3.21% | –
CC1=C(C(=O)OCc2ccccc2)C(c2ccccc2F)NC(=O)N1 (stereo not shown) [Compound 5m, Benzyl 4‐(2‐Fluorophenyl)‐6‐Methyl‐2‐Oxo‐1,2,3,4‐Tetrahydropyrimidine‐5‐Carboxylate] | 84.9 | 15.7 | 16.6 | – | 97.7 ± 3.27 | 20.4 | 95.2 ± 3.72 | 99.95 ± 2.40% | –
COc1ccc(C2NC(=O)NC(C)=C2C(=O)OCc2ccccc2)c(F)c1 (stereo not shown) [Compound 5a, Benzyl 4‐(2‐Fluoro‐4‐Methoxyphenyl)‐6‐Methyl‐2‐Oxo‐1,2,3,4‐Tetrahydropyrimidine‐5‐Carboxylate] | 86.2 | 5.03 | 5.36 | – | 90.6 ± 3.35 | 71.5 | 91.33 ± 0.64 | 71.87 ± 4.77% | –
CC1=C(C(=O)OCc2ccccc2)C(c2ccc(C)cc2F)NC(=O)N1 (stereo not shown) [Compound 5n, Benzyl 4‐(2‐Fluoro‐4‐Methylphenyl)‐6‐Methyl‐2‐Oxo‐1,2,3,4‐Tetrahydropyrimidine‐5‐Carboxylate] | 86.7 | 7.17 | 74.6 | – | 98.7 ± 2.49 | 39.6 | 97.3 ± 1.3 | 90.54 ± 0.81% | –
CC1=C(C(=O)OCc2ccccc2)C(c2ccc(F)cc2)NC(=O)N1 (stereo not shown) [Compound 5l, Benzyl 4‐(4‐Fluorophenyl)‐6‐Methyl‐2‐Oxo‐1,2,3,4‐Tetrahydropyrimidine‐5‐Carboxylate] | 86.6 | 0.89 | 22.9 | – | 98 ± 1.89 | 52.9 | 100 ± 2.96 | 82.62 ± 2.93% | –

Stronger by GI50 (MDA-MB-231 cells; Homo sapiens, MDA-MB-231, 24 h), values ahead:

GI50 (MDA-MB-231 cells; Homo sapiens, MDA-MB-231, 24 h) [µM] | IC50 (MCF-7 cells) [µM] | IC50 [2] [µM] | GI50 (MDA-MB-231 cells) [µM] | SMILES | viability at 24 h, 10 µM [1] [%] | GI50 (HEK-293 cells) [µM] | viability at 10 µM (MDA-MB-231 cells; Homo sapiens, MDA-MB-231, 24 h) [%] | % Clonogenicity (MCF-7, 10 μM) (MCF-7 cells) | % Viability (MDA-MB-231, 10 μM) (MDA-MB-231 cells) [%]
19.3 | 0.83 | 32.6 | – | COc1ccc(COC(=O)C2=C(C)NC(=O)NC2c2cccc(Cl)c2)cc1OC (stereo not shown) [Compound 5g, 3,4‐Dimethoxybenzyl 4‐(3‐Chlorophenyl)‐6‐Methyl‐2‐Oxo‐1,2,3,4‐Tetrahydropyrimidine‐5‐Carboxylate] | 96.7 ± 3.77 | 39.1 | < 80 | 50.04 ± 2.3% | 72.16 ± 7.20
40 | 0.56 | 9.59 | 40 | COc1ccc(COC(=O)C2=C(C)NC(=O)NC2c2ccc(Cl)cc2)cc1 (stereo not shown) [Compound 5i, 4‐Methoxybenzyl 4‐(4‐Chlorophenyl)‐6‐Methyl‐2‐Oxo‐1,2,3,4‐Tetrahydropyrimidine‐5‐Carboxylate] | 94.3 ± 2.95 | 98.5 | 83.26 ± 0.69 | 8.39% and 8.39 ± 2.84% | –
77.2 | 2.46 | 20.2 | – | COc1ccc(C2NC(=O)NC(C)=C2C(=O)OCc2ccc3c(c2)OCO3)cc1 (stereo not shown) [Compound 5k, Benzo[d] [1,3] Dioxol‐5‐ylmethyl 4‐(4‐Methoxyphenyl)‐6‐Methyl‐2‐Oxo‐1,2,3,4‐Tetrahydropyrimidine‐5‐Carboxylate] | 98.6 ± 1.31 | 63 | 98.7 ± 2.6 | 99.85 ± 3.27% | –
65.7 | 3.49 | 32.5 | – | COc1ccc(COC(=O)C2=C(C)NC(=O)NC2c2ccccc2Cl)cc1OC (stereo not shown) [Compound 5j, 3,4‐Dimethoxybenzyl 4‐(2‐Chlorophenyl)‐6‐Methyl‐2‐Oxo‐1,2,3,4‐Tetrahydropyrimidine‐5‐Carboxylate] | 93 ± 2.59 | 58 | < 80 | 58.18 ± 4.42% | 76.50 ± 4.28
23.7 | 9.08 | 6.47 | – | COc1cccc(COC(=O)C2=C(C)NC(=O)NC2c2ccc(Cl)cc2)c1 (stereo not shown) [Compound 5h, 3‐Methoxybenzyl 4‐(4‐Chlorophenyl)‐6‐Methyl‐2‐Oxo‐1,2,3,4‐Tetrahydropyrimidine‐5‐Carboxylate] | 81 ± 2.36 | 12.3 | 88 ± 3.1 | 42.34 ± 4.80% | –
72.1 | 0.68 | 13.1 | – | COc1ccc(C2NC(=O)NC(C)=C2C(=O)OCc2ccc(OC)c(OC)c2)c(F)c1 (stereo not shown) [Compound 5b, 3,4‐Dimethoxybenzyl 4‐(2‐Fluoro‐4‐Methoxyphenyl)‐6‐Methyl‐2‐Oxo‐1,2,3,4‐Tetrahydropyrimidine‐5‐Carboxylate] | 99.9 ± 1.5 | 44.9 | 89.7 ± 1.37 | 71.39 ± 2.94% | –
22.7 | 2.46 | 4.28 | – | COc1ccc(COC(=O)C2=C(C)NC(=O)NC2c2ccc(Cl)cc2)cc1OC (stereo not shown) [Compound 5c, 3,4‐Dimethoxybenzyl‐4‐(4‐Chlorophenyl)‐6‐Methyl‐2‐Oxo‐1,2,3,4‐Tetrahydropyrimidine‐5‐Carboxylate] | 99.4 ± 3.16 | 12.6 | < 80 | 64.29 ± 3.69% | 73.55 ± 3.50

Source: publication PMC12704579, “New Anticancer 4‐Aryldihydropyrimidinone‐5‐Carboxylates Targeting Hsp90” (Chemical Biology & Drug Design, 2025)
